Key:
[1] = system: mesencephalic dopaminergic neurons; experiment: TOPA neurotoxicity in mesencephalic dopaminergic neuron cultures, TH immunofluorescence; format: cell-based, rat; conditions: for TH+ cells (% control): counted 24 h later, mean ± S.E.M.
Experimental: Mesencephalic neuron cultures were prepared according to Dal Toso et al. (Dal Toso et al.: “Development and survival of neurons in dissociated fetal mesencephalic serum-free cell cultures: I. Effects of cell density and of an adult mammalian striatal-derived neuronotrophic factor (SDNF)”, J. Neurosci., 8 (3) 733-745, 1988) from the mesencephalic tegmentum of 14.5-15 days' rat embryos.
Neurons (0.75×10^6) were plated on a poly-L-ornithine substrate in 12-well (25 mm dia. each) clusters.
Cultures were used between the fourth and the sixth day without changing the medium. […]
(§1) 2-hour pretreatment before acute incubation with TOPA;
(§2) cotreatment only with LIGA 20 before acute incubation with TOPA;
(§3) pretreatment with/without cotreatment before (100 μM for 2 h) and/or during (100 μM for 24 h) prolonged incubation with TOPA. TOPA cytotoxicity was determined by evaluating cellular survival, and more precisely:
TH immunofluorescence (specific for tyrosine hydroxylase) in mesencephalic dopaminergic neurons, as described by Berger et al. (Berger B. et al.: “Long-term development of mesencephalic dopaminergic neurons of mouse embryos in dissociated primary cultures: morphological and histochemical characteristics”, Neurosci., 7, 193-205, 1982);
(§4) Cytotoxicity is expressed as per cent cellular survival.
The results of the two tests (in triplicate) were analysed statistically according to Duncan's test.

[2] = system: MPTP-treated squirrel monkeys; experiment: motor behaviour rating of MPTP-treated squirrel monkeys; format: in vivo
Experimental: In vivo experiments with GM1 were carried out on 15 (male or female) squirrel monkeys and 4 cynomolgus monkeys.
The monkeys were administered MPTP saline solution after being anaesthesized i.m. with ketamine HCl 5 mg/kg, as follows:
2 mg/kg/dose, i.m. (squirrel monkeys).
MPTP was administered every third day until complete manifestation of parkinsonian motor symptomatology was obtained, i.e. akinesia, lack of responsiveness to stimulation, inability to climb, to feed autonomously, and to groom. Thirty points min. (as will be defined in the explanation of FIG. 1) had to be obtained during the 48-60 hours following the last MPTP administration; then animals in pairs were subdivided at random into two treatment groups, i.e. treatment with GM1 or with saline solution. […]
In particular, the following functions were recorded: overall activity, ability to climb, locomotion/gait, upper and lower limb movements, detailed motor ability, bradykinesia/akinesia, dyskinesia/dystonia, carriage, tremor, balance, grooming ability, sudden immobility during movements, and ability to feed. […]
FIGS. 1 and 2 are now being considered in detail. […] Columns represent the average points (±S.D.); normal point is 0, MPTP points are the points recorded after the last MPTP injection but prior to the administration of associated GM1-saline solution. […]

[3] = system: MPTP-treated squirrel monkeys; experiment: food grasping test in MPTP-treated squirrel monkeys; format: in vivo; conditions: GM1 30 mg/kg/day i.m., investigation end
Experimental: Tests on squirrel monkeys, which concerned simple motor functions (e.g. capability of grasping food placed in deep containers), were intended to determine the response time and evaluate limb functional use. In particular, monkeys were trained to grasp raisins from a Plexiglas platform accommodating 9.5 mm dia. wells. The time taken to start grasping and the number of raisins grasped in a 6-minute time limit were recorded. All the aforesaid tests were carried out before the first meal of the day.
Normal monkeys started response on sighting the food container.
Normal squirrel monkeys succeeded in grasping 100% food. Soon after MPTP administration, all monkeys were endangered and grasped approx. 15% food. Within the third week of treatment, the monkeys treated with GM1—compared with those treated with saline solution—grasped a higher amount of food. At the investigation end, the former grasped 100% food whereas the latter grasped only 25% food (*p<0.05).

cerebellar granule cells = experiment: TOPA neurotoxicity in cerebellar granule cell cultures, MTT assay; format: cell-based; conditions: for Neuronal survival (%): control = 100%
Experimental: Granular cell cultures were obtained from 8-day rat cerebella and cultured (3×10^6 cells) on plates coated with poly-L-lysine substrate according to Skaper et al. (Skaper S. D. et al.: “Culture and use of primary and clonal neural cells”, Methods in Neurosciences, Ed. by P. M. Conn, Vol. 2, pp. 17-33, Academic Press, Orlando, 1990).
Twenty-four hours later, cytosine arabinoside (10 μM) was added to inhibit non-neuronal proliferation. Cerebellar granule cells were used 10-12 days later without changing the medium.
Cells were incubated with TOPA either for 40 minutes (100 μM acute exposure) or for 24 h (10 μM prolonged exposure).
Treatment with GM1, AGF2, AGF4 (100 μM) and LIGA 20 (1-30 μm) was carried out as follows:
as §1, §2, §3
MTT colorimetric assay of cerebellar neurons, as described by Mosmann (Mosmann T.: “Rapid colorimetric assay for cellular growth and survival: application to proliferation and cytotoxicity assays”, J. Immunol. Meth., 65, 55-63, 1983).
as §4
The results of the two tests (in triplicate) were analysed statistically according to Duncan's test. A brief description of same is reported below:
In FIG. 3 the dose-dependent protective effect of LIGA20 against TOPA-induced death of cultured cerebellar granule cells is represented. Cells were exposed concurrently to 100 μM TOPA and 1-30 μM LIGA20 or 200 μM GM1 in Locke's solution for 45 minutes (24° C.), washed and returned to their original medium. Survival was assessed 24 h later by the MTT method. Means±S.E.M. (n=9, 3 experiments). TOPA ( ), LIGA 20 ( ), GM1 ( ).
In vitro granule cells at the 11th day were incubated as indicated above. In the 40-minute exposure to TOPA, GM1 (100 μM) was used in 2-h pretreatment only. In the […] exposure to TOPA, GM1 (100 μM) was used either in 2-h pretreatment only or in 2-h pretreatment and in cotreatment with TOPA. The values are expressed with reference to the corresponding control cultures (=100%) and are an average (±S.D.) of two determinations, each being carried out in triplicate.

monosialoganglioside [GM1]
number of neurons which survived the TOPA-induced toxic insult ([1]; 10 μM GM1 with 1 ng/ml BDNF, compared with saturation concentration (50 ng/ml) of BDNF alone): not significantly different | No. of TH+ cells ([1]; 100 μM compound incubated with TOPA 10 μM for 24 h, average ± S.D., control 244 ± 20): 187 ± 10 (b) | TH+ cells (% control) ([1]; 200 μM GM1 2 h pretreatment, washed, then 100 μM TOPA for 45 minutes): 79.1 ± 4.0 % control | TH+ cells (% control) ([1]; 200 μM GM1 cotreatment with 100 μM TOPA for 45 minutes, no drug 5.2 ± 1.1): 5.6 ± 0.7 % control | effect of association with BDNF in protecting against TOPA-induced neurotoxicity ([1]; ganglioside 1-10 μM with BDNF 1 ng/ml): synergic effect | neuroprotective activity alone against TOPA-induced neurotoxicity ([1]; ganglioside alone at 1-10 μM): no neuroprotective activity of their own | motor behaviour at the investigation end ([2]; GM1 30 mg/kg/day i.m., p<0.01 vs saline solution): almost normal behaviour | recovered motor behaviour ([2]; GM1 chronic i.m. administration, end of 6-8 weeks' investigation, MPTP monkeys, species not separated (FIG. 1)): 86-89% | response start time in food grasping test ([3]; p<0.002 vs saline solution): started response almost immediately | food per cent amount grasped during the test ([3]; saline solution 25%, normal 100%): 100% | Neuronal survival (%) (cerebellar granule cells; GM1 100 μM 2-h pretreatment and cotreatment, TOPA 10 μM 24-h exposure): 75.4 ± 5.5 (b) % | Neuronal survival (%) (cerebellar granule cells; GM1 100 μM 2-h pretreatment only, TOPA 10 μM 24-h exposure): 57.0 ± 6.5 (a) % | Neuronal survival (%) (cerebellar granule cells; GM1 100 μM 2-h pretreatment only, then TOPA 100 μM 40-minute exposure): 72.4 ± 5.8 (a) % | protection against the acute toxicity of TOPA in cotreatment (cerebellar granule cells; GM1 up to 200 μM, cotreatment with 100 μM TOPA for 45 minutes (FIG. 3)): not active

— US6620792B1, “Pharmaceutical compositions containing monosialoganglioside GM1 or derivative thereof suitable for the treatment of parkinson's disease” (Fidia S.p.A., priority 1992, dated 2003)
